Data: patent US20040197777A1, “Polymorphisms of the OCTN1 and OCTN2 cation transporters associated with inflammatory bowel disorders” (priority 2001, published 2004)

Experiments:
vascular inflammation = conditions: various models of vascular inflammation in rodents; cited from earlier work
Ulcerative Colitis = conditions: topical irrigation of the colon; cited from earlier work
OCTN1 [1] = conditions: transfected Phoenix mouse fibroblast cells, 37° C.; FIG. 4
Protocol: Transfected Phoenix mouse fibroblast cells were loaded with ^14C-labeled TEA for 30 min. at 37° C., washed twice in cold transport buffer, and then resuspended in transport medium. Efflux was initiated at 37° C. and measured at 0, 4, 8, 12 and 30 minutes. Measurements were taken by washing twice in cold transport buffer, solubilizing with 1× cell culture lysis reagent (Promega) and quantifying the 14C retention from 150 μL aliquots. Cellular protein content was determined according to the BCA method. For sodium-free experiments, cells were suspended in medium with sodium replaced isotonically with N-methyl-D-glucamine.

OCTN2 promoter = test: OCTN2 luciferase promoter assay; format: cell-based, human; conditions: HeLa cells, 20 μM arachidonic acid at 37° C.; FIG. 2
From the text: For the OCTN2 luciferase promoter assays, a Dual-Luciferase Reporter Assay System (Promega) was used to study the effect of the mutation on the OCTN2 promoter region. The OCTN2-promoter luciferase reporter gene constructs were generated by PCR amplification of approximately 2.7 kb OCTN2-promoter fragments using genomic DNA from a patient homozygous for the G allele as a template and ligation into Bg/II/MluI site of the promoterless luciferase vector pRL-null (Promega) that uses luciferase from Renilla reniformis as a reporter. For PCR primers, two primers, OCTN2-BglII:
5′-[…]-3′ (SEQ ID NO:13) and OCTN2-M1uI: 5′-[…]-3′ (SEQ ID NO:14) were used. […]
To normalize the activity of the experimental reporter, constructs were cotransfected into HeLa cells with 20-fold less firefly luciferase plasmid pGL3-P as an internal control LipofectAMINE PLUS™ Reagent (Invitrogen, La Jolla, Calif., USA) as per the manufacturer's protocol. […] The luminescence from (Renilla luciferase reaction (“experimental” reporter a:) was measured simultaneously with the activity of firefly luciferase (“control” reporter) using Dual-Luciferase Reporter Assay System (Promega). The instrumentation used was a manual luminometer (Lumat LB 9501, Berthold). The cells transfected with empty vector under similar conditions served as control. All assays were carried out in triplicate.

[2] = test system: HSF1 binding to the OCTN2 promoter; test: OCTN2 gel shift assay (EMSA) with HeLa nuclear extracts; format: cell-based, human; conditions: nuclear extract of HeLa cells treated with arachidonate; no binding at 37° C. alone
Protocol: For OCTN2 gel shift assays, human HeLa cells were grown in D-MEM supplemented with 10% fetal bovine serum, 2 mm […], 100 U/ml penicillin, and 100 μg/ml streptomycin at 37° C. in T-75 tissue culture flasks (Sarstedt). Heat-shocked cells were prepared by incubating the flasks in tissue culture incubator at 42° C. for 3 hr. For arachidonate experiment, the day before, the HeLa cells were starved over night with in serum-free D-MEM. The next day cells were washed twice with PBS. Cells were treated then with for 30 min with […] arachidonate at 37° C. The working concentrations were prepared from sodium arachidonate (Sigma) and stored in cold absolute ethanol as a 100 mM stock solution. Control cells were treated with an equivalent concentration of ethanol. Nuclear extracts were prepared by NP-40 based fractionation. This procedure is a modification of the procedure described by Baler R, Dahl G & Voellmy R, Mol. Cell. Biol. 13: 2486-2496 (1993). […] The protein concentration of the extracts was measured using the Bradford assay (Bio-Rad). […]
The reaction products were separated electrophoretically on 4% polyacrylamide gel for 3 h at 200 V, dried and exposed to film and detected by autoradiography.

OCTN1 [3] = test: OCTN1 transporter assay: uptake of radiolabeled carnitine by cells transfected with OCTN1 L503 or L503F; format: cell-based, human
Protocol: Transient expression of OCTN1 (transporter assays) and OCT2 (luciferase promoter assays). For transient expression of wild-type or mutant (L503F; SEQ ID NO:7), HeLa cells were plated out at a density […] cells/dish in 100-mm plastic culture dishes (Falcon) and carnitine deficient human fibroblasts, (GM 10665) were plated out at a density 2.5×10^5 cells/well in 6-well plastic culture dishes (Falcon) 24 hr prior transfection with LipofectAMINE PLUS™ Reagent (Invitrogen, La Jolla, Calif., USA) as recommended by the manufacturer.
For HeLa cell culture, human HeLa cells were grown in D-MEM supplemented with 10% fetal bovine serum, 2 mM L-glutamine, 100 U/ml penicillin, and 100 μg/ml streptomycin. […]
For the OCTN1 transporter assays, carnitine transport measurements were made at room temperature using L-[^3H]carnitine as substrate, (specific activity 81 Ci/mmol, Moravek Biochemicals Inc.). […] The cells were then solubilized with 1× cell culture lysis reagent (Promega), and the associated radioactivity was quantitated in a liquid scintillation counter. Cellular protein content was determined according to the bicinchoninic acid method of Smith P K et al., Anal. Biochem. 150: 76-85 (1985), using BCA standard protein assay reagent kit (Pierce). […] The luciferase activity was measured on manual luminometer (Lumat LB 9501, Berthold). […]

## CCC(=O)O[C@H](CC(=O)[O-])C[N+](C)(C)C [PLC, propyonil-L-carnitine]
Vascular inflammation
  effect on inflammation: inhibits inflammation
Ulcerative Colitis
  effect on symptoms of Ulcerative Colitis: improve some symptoms of Ulcerative Colitis

## CC[N+](CC)(CC)CC [TEA, tetraethyl ammonium]
OCTN1 [1]
  efflux of radiolabeled TEA by phenylalanine (L503F) variant of OCTN1 compared with leucine variant (L503): significant decrease in efflux

## CCCCC/C=C\C/C=C\C/C=C\C/C=C\CCCC(=O)O [arachidonic acid]
OCTN2 promoter
  decreased expression of luciferase construct with C allele of G-207C compared to the arachidonate-induced level: 3.3 fold
[2]
  binding of nuclear factor (HSF1) to oligonucleotide with wild-type G allele of OCTN2 promoter: induced

## C[N+](C)(C)CC(O)CC(=O)[O-] (stereo not shown) [carnitine]
OCTN1 [3]; cell line from an individual lacking OCTN2 expression, FIG. 3B
  reduction toward vector baseline in uptake of radiolabeled carnitine, L503F vs leucine allele: 5.2 fold
OCTN1 [3]; transient transfection into HeLa cells, FIG. 3A
  reduction toward the vector-alone baseline in uptake of radiolabeled carnitine, phenylalanine allele (L503F) vs leucine allele: 3.6 fold
